Test results from PubChem BioAssay AID256 (DTP/NCI, 2004).
Toxic doses and inconclusive results are not listed. Rule for the calls: active = survival T/C of 150% or more; inactive = T/C below 125% in these data.

System: CD2F1 mice, L1210 leukemia ip, survival T/C
Experiment: NCI In Vivo Anticancer Drug Screen. Data for tumor model L1210 Leukemia (intraperitoneal) in CD2F1 (CDF1) mice
Settings: higher = longer survival
In short: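 Vehicle-treated tumor-bearing mice served as controls (C) for compound-treated mice (T). Reported figure is T divided by C.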

[1] = endpoint: mean survival time, dose: 50.0 mg/kg/injection, schedule: Q01DX009 (ip), vehicle: saline with Tween-80
[2] = endpoint: mean survival time, dose: 100.0 mg/kg/injection, schedule: Q01DX009 (ip), vehicle: saline with Tween-80
[3] = endpoint: mean survival time, dose: 100.0 mg/kg/injection, schedule: Q04DX003 (ip), vehicle: saline with Tween-80
[4] = endpoint: mean survival time, dose: 200.0 mg/kg/injection, schedule: Q01DX009 (ip), vehicle: saline with Tween-80
[5] = endpoint: mean survival time, dose: 200.0 mg/kg/injection, schedule: Q04DX003 (ip), vehicle: saline with Tween-80
[6] = endpoint: mean survival time, dose: 400.0 mg/kg/injection, schedule: Q04DX003 (ip), vehicle: saline with Tween-80
[7] = endpoint: mean survival time, dose: 100.0 mg/kg/injection, schedule: Q01DX001 (ip), vehicle: saline
[8] = endpoint: mean survival time, dose: 200.0 mg/kg/injection, schedule: Q01DX001 (ip), vehicle: saline
[9] = endpoint: mean survival time, dose: 400.0 mg/kg/injection, schedule: Q01DX001 (ip), vehicle: saline
[10] = endpoint: mean survival time, dose: 100.0 mg/kg/injection, schedule: Q01DX001 (ip), vehicle: saline with Tween-80
[11] = endpoint: mean survival time, dose: 200.0 mg/kg/injection, schedule: Q01DX001 (ip), vehicle: saline with Tween-80
[12] = endpoint: mean survival time, dose: 400.0 mg/kg/injection, schedule: Q01DX001 (ip), vehicle: saline with Tween-80
[13] = endpoint: mean survival time, dose: 100.0 mg/kg/injection, schedule: Q04DX003 (ip), vehicle: saline
[14] = endpoint: mean survival time, dose: 200.0 mg/kg/injection, schedule: Q04DX003 (ip), vehicle: saline
[15] = endpoint: mean survival time, dose: 400.0 mg/kg/injection, schedule: Q04DX003 (ip), vehicle: saline

Measured: T/C

CCN(CC)C(=S)S[Se](SC(=S)N(CC)CC)(SC(=S)N(CC)CC)SC(=S)N(CC)CC
inactive: endpoint: median survival time, dose: 3.12 mg/kg/injection, schedule: Q01DX009 (ip), vehicle: Klucel (hydroxypropylcellulose) (HPC) 103 % of control | endpoint: median survival time, dose: 6.25 mg/kg/injection, schedule: Q01DX009 (ip), vehicle: Klucel (hydroxypropylcellulose) (HPC) 101 % of control | endpoint: median survival time, dose: 12.5 mg/kg/injection, schedule: Q01DX009 (ip), vehicle: Klucel (hydroxypropylcellulose) (HPC) 95 % of control | endpoint: median survival time, dose: 25.0 mg/kg/injection, schedule: Q01DX009 (ip), vehicle: Klucel (hydroxypropylcellulose) (HPC) 93 % of control | endpoint: median survival time, dose: 50.0 mg/kg/injection, schedule: Q01DX009 (ip), vehicle: Klucel (hydroxypropylcellulose) (HPC) 93 % of control

NC(=O)c1csc(C2OC(CO)C(O)C2O)[n+]1[O-] (stereo not given)
inactive: endpoint: median survival time, dose: 9.38 mg/kg/injection, schedule: Q01DX005 (ip), vehicle: saline 102 % of control | endpoint: median survival time, dose: 18.75 mg/kg/injection, schedule: Q01DX005 (ip), vehicle: saline 101 % of control | endpoint: median survival time, dose: 37.5 mg/kg/injection, schedule: Q01DX005 (ip), vehicle: saline 103 % of control | endpoint: median survival time, dose: 75.0 mg/kg/injection, schedule: Q01DX005 (ip), vehicle: saline 104 % of control | endpoint: median survival time, dose: 150.0 mg/kg/injection, schedule: Q01DX005 (ip), vehicle: saline 104 % of control

Cc1cc(-c2ccccc2)cc(=S)[nH]1
inactive: endpoint: mean survival time, dose: 100.0 mg/kg/injection, schedule: Q01DX001 (ip), vehicle: carboxymethylcellulose (CMC) 88 % of control | endpoint: mean survival time, dose: 200.0 mg/kg/injection, schedule: Q01DX001 (ip), vehicle: carboxymethylcellulose (CMC) 94 % of control | endpoint: mean survival time, dose: 400.0 mg/kg/injection, schedule: Q01DX001 (ip), vehicle: carboxymethylcellulose (CMC) 95 % of control

O=C(O)C(O)C(O)C(O)C(O)CO.[Mn] (stereo not given)
inactive: [1] 106 % of control | endpoint: mean survival time, dose: 50.0 mg/kg/injection, schedule: Q04DX003 (ip), vehicle: saline with Tween-80 100 % of control | [2] 107 % of control | [3] 102 % of control | [4] 118 % of control | [5] 104 % of control

CC(=O)Nc1nc(CCl)cs1
inactive: endpoint: mean survival time, dose: 100.0 mg/kg/injection, schedule: Q01DX001 (ip), vehicle: Klucel (hydroxypropylcellulose) (HPC) 92 % of control | endpoint: mean survival time, dose: 200.0 mg/kg/injection, schedule: Q01DX001 (ip), vehicle: Klucel (hydroxypropylcellulose) (HPC) 87 % of control

Cn1c(=O)c2c(nc(-c3ccccc3)n2O)n(C)c1=O
inactive: endpoint: mean survival time, dose: 12.5 mg/kg/injection, schedule: Q01DX005 (ip), vehicle: other 97 % of control | endpoint: mean survival time, dose: 25.0 mg/kg/injection, schedule: Q01DX005 (ip), vehicle: other 105 % of control | endpoint: mean survival time, dose: 50.0 mg/kg/injection, schedule: Q01DX005 (ip), vehicle: other 92 % of control | endpoint: mean survival time, dose: 100.0 mg/kg/injection, schedule: Q01DX005 (ip), vehicle: other 97 % of control

CC1=C2CCOC2=Nc2ccccc2O1
inactive: endpoint: mean survival time, dose: 75.0 mg/kg/injection, schedule: Q01DX001 (ip), vehicle: saline 109 % of control | endpoint: mean survival time, dose: 150.0 mg/kg/injection, schedule: Q01DX001 (ip), vehicle: saline 104 % of control | endpoint: mean survival time, dose: 300.0 mg/kg/injection, schedule: Q01DX001 (ip), vehicle: saline 97 % of control

CCOc1cccc(Cc2cn(Cc3ccccc3)c(=O)[nH]c2=O)c1
inactive: [3] 100 % of control | [5] 106 % of control | [6] 96 % of control

CC1(C)C/C(=C\c2ccccc2[N+](=O)[O-])C(=O)c2ccccc21
inactive: endpoint: mean survival time, dose: 100.0 mg/kg/injection, schedule: Q04DX003 (ip), vehicle: acetone 92 % of control | endpoint: mean survival time, dose: 200.0 mg/kg/injection, schedule: Q04DX003 (ip), vehicle: acetone 90 % of control | endpoint: mean survival time, dose: 400.0 mg/kg/injection, schedule: Q04DX003 (ip), vehicle: acetone 93 % of control

CCCCS.[Hg]
inactive: endpoint: mean survival time, dose: 6.25 mg/kg/injection, schedule: Q01DX009 (ip), vehicle: saline with Tween-80 95 % of control | endpoint: mean survival time, dose: 12.5 mg/kg/injection, schedule: Q01DX009 (ip), vehicle: saline with Tween-80 96 % of control | endpoint: mean survival time, dose: 25.0 mg/kg/injection, schedule: Q01DX009 (ip), vehicle: saline with Tween-80 95 % of control

O=C1OC2(c3ccccc31)c1ccccc1-c1ccccc12
inactive: [1] 97 % of control | [2] 100 % of control | [4] 100 % of control

CCCCNc1cc(Nc2ccc(Br)cc2)nc(N)n1
inactive: [1] 98 % of control | [2] 97 % of control | [4] 98 % of control

CC(=O)Nc1ccc(S(=O)(=O)CBr)cc1
inactive: [7] 102 % of control | [8] 97 % of control | [9] 96 % of control

O=C(O)Cc1ccccc1[N+](=O)[O-]
inactive: [10] 106 % of control | [11] 101 % of control | [12] 101 % of control

CC1=C(N2CC2)C(=O)c2c(COC(N)=O)c3n(c2C1=O)C[C@H]1N[C@@H]31
inactive: endpoint: mean survival time, dose: 3.0 mg/kg/injection, schedule: Q01DX001 (ip), vehicle: distilled water + Tween-80 106 % of control | endpoint: mean survival time, dose: 6.0 mg/kg/injection, schedule: Q01DX001 (ip), vehicle: distilled water + Tween-80 118 % of control | endpoint: mean survival time, dose: 12.0 mg/kg/injection, schedule: Q01DX001 (ip), vehicle: distilled water + Tween-80 122 % of control | endpoint: mean survival time, dose: 24.0 mg/kg/injection, schedule: Q01DX001 (ip), vehicle: distilled water + Tween-80 120 % of control

BrC/C(=N\N1CCCCCC1)c1ccc(-c2ccccc2)cc1
inactive: [7] 92 % of control | [8] 93 % of control | [9] 94 % of control

Clc1ccc2c(c1)[N-]c1ccccc1S2.Clc1ccc2c(c1)[N-]c1ccccc1S2.[Cl][Pt+2][Cl]
inactive: endpoint: mean survival time, dose: 3.8 mg/kg/injection, schedule: Q04DX003 (ip), vehicle: saline with Tween-80 102 % of control | endpoint: mean survival time, dose: 7.5 mg/kg/injection, schedule: Q04DX003 (ip), vehicle: saline with Tween-80 102 % of control | endpoint: mean survival time, dose: 15.0 mg/kg/injection, schedule: Q04DX003 (ip), vehicle: saline with Tween-80 90 % of control | endpoint: mean survival time, dose: 30.0 mg/kg/injection, schedule: Q04DX003 (ip), vehicle: saline with Tween-80 94 % of control | endpoint: mean survival time, dose: 60.0 mg/kg/injection, schedule: Q04DX003 (ip), vehicle: saline with Tween-80 90 % of control

OC(c1ccccc1)(c1ccc2ccccc2n1)c1cccs1 (stereo not given)
inactive: [13] 102 % of control | [14] 90 % of control | [15] 90 % of control

Cc1ccc(S(=O)(=O)OC2C(O)OCC3OC(C)(C)OC32)cc1 (stereo not given)
inactive: [3] 98 % of control | [5] 102 % of control | [6] 93 % of control

CNC(=O)Nc1ccncc1
inactive: [2] 97 % of control | [4] 102 % of control | endpoint: mean survival time, dose: 400.0 mg/kg/injection, schedule: Q01DX009 (ip), vehicle: saline with Tween-80 102 % of control

Brc1cccc2c1CCCC2
inactive: [3] 97 % of control | [5] 95 % of control | [6] 103 % of control

CC12CCC3C(CCC4CC(O)CCC43C)C1CCC2=O (stereo not given)
inactive: [3] 103 % of control | [5] 92 % of control | [6] 97 % of control

CC([NH-])c1ccccc1.[Cl][Pt]([Cl])[Cl] (stereo not given)
inactive: [13] 101 % of control | [14] 100 % of control | [15] 101 % of control

CCCCCCCCCCCCOc1ccc(Cl)cc1Sc1cc(Cl)ccc1OCCCCCCCCCCCC
inactive: [10] 92 % of control | [11] 93 % of control | [12] 86 % of control

CC(C(=O)c1ccc(-c2ccccc2)cc1)C(Cl)c1ccccc1 (stereo not given)
inactive: [3] 95 % of control | [5] 95 % of control | [6] 100 % of control
